# Measurements as given in patent US8748101B2, “Methods, compositions, and devices utilizing MicroRNA to determine physiological conditions” (Battelle Memorial Institute, priority 2008, dated 2014).
# Experiments:
# male C57/B6 mice [1] = settings: mouse, in vivo
# Experimental: Quantitative PCR (QPCR) with microRNA specific primer sets were used to confirm the results from array hybridization. In brief, a SYBR Green based method, miScript real-time PCR (Qiagen Inc. Valencia, Calif., USA), or TaqMan primer set from Apply Biosystems, was used with 50 ng of total RNA from each sample. The first strand cDNA was generated according to the manufacturer's instruction. Approximately 2.5 ng of cDNA was used in the PCR reaction. The yield of 18 to 20 base pair fragments (based on SYBR Green intensity) corresponding to the specific microRNA species was monitored with the 7900HT fast real-time PCR system from Applied Biosystems (Applied Biosystems, Foster City, Calif.). QPCR results were analyzed by SDS 2.2.2, with a manual CT threshold value of 0.2.
# The male C57/B6 mice were randomly grouped into nine different groups with 4 animals in each group. […] Mice were sacrificed and plasma samples were collected at 1, 3 and 24 hours post-exposure. The nine groups were: 1) 1 hour control; 2) 1 hour treatment 1; 3) 1 hour treatment 2; 4) 1 hour treatment 3; 5) 3 hour control; 6) 3 hour treatment 1; 7) 3 hour treatment 2; 8) 3 hour treatment 3; and 9) 24 hour treatment 3. […] The expression levels of two different microRNA sequences, mir-486 and mir-122, in the serum were profiled by quantitative polymerase chain reactions (Q-PCR). […]
# male C57/B6 mice [2] = test: microRNA profile of plasma, acetaminophen treatment group vs control group; format: in vivo; settings: 300 mg/kg single intraperitoneal injection, 24 hours post exposure, FIG. 3
# Experimental: Approximately, 800 μl of QIAzol lysis reagent was added to 200 μl liquid sample. The sample was mixed in a tube followed by adding 200 μl of chloroform. After mixing rigorously for 15 seconds, the sample was then centrifuged at 12,000×g for 15 minutes. The upper aqueous phase was carefully transferred to a new collection tube, and 1.5 total volumes of ethanol was added. The sample was then applied directly to a glass membrane containing column and the RNA was bound and purified by three contiguous washing to remove unwanted contamination. The immobilized RNA was then collected from the membrane with a low salt elution buffer.
# The male C57/B6 mice were randomly grouped into two groups, a treatment group (3 animals) and control group (4 animals). […] Mice were sacrificed at 24 hours post exposure, the plasma samples were collected and RNA was isolated.
# The expression levels of microRNA sequences in the serum were used to make a microRNA profile. The differentially expressed microRNA sequences between the treatment group and the control group were clustered with the Hierarchical clustering method and is shown in FIG. 3.
compound,measurement,setting,value
CC(=O)Nc1ccc(O)cc1 [acetaminophen],mir-486 and mir-122 intensities at one hour,male C57/B6 mice [1],Clear changes
same,"levels of microRNA sequences in serum/plasma, treatment vs control",male C57/B6 mice [2],levels of certain microRNA sequences in the serum could be used as an indication of the acetaminophen toxicity
